Laboratory results as given in a melting point compilation (Tetko et al.; mined from patent text by program, amines drawn as free bases though some values may be those of a salt).

Compared with `CCCCN1CC(=O)N(c2cc(Cl)ccc2C)C1=S`, `O=S(=O)(c1cc(Cl)ccc1O)N1CCCC1` is lower in melting point: 102 to 103 °C for the first, 101 to 102 °C for the second.

First: CCn1cc(C(=O)O)c(=O)c2cc(F)c(C3NCC4CCC3N4C)c(F)c21 (stereo unspecified)
Second: O=S1(=O)N=CN(C2CC2)c2c(F)cc(F)c(F)c21
The melting point of the first is higher: 184 to 187 °C for the first, 166 to 168 °C for the second.

First: CN1C(=O)C(C(=O)Nc2nccs2)Sc2ccccc21 (stereo unspecified)
Second: CN1CCN(C(=O)CC2c3ccccc3C(=O)N2c2ccc(Cl)cn2)CC1 (stereo unspecified)
The melting point of the first is higher: 234 to 235 °C for the first, 190 to 193 °C for the second.

First: CCOC(=O)C1=C(C)NC(C)=C(C(=O)OCC)C1c1ccccc1/C=C/c1ccccc1
Second: CCCC(=O)C(=CNc1cccc(COC(=O)c2ccccc2)c1)C(=O)OCC
The melting point of the first is higher: 187 to 188 °C for the first, 59 to 63 °C for the second.

First: N#Cc1c2c(c3c(c1N1CCCC1)Cc1ccccc1-3)Cc1ccccc1-2
Second: CC(=O)N1CCCc2c1n(-c1ccccc1)c1c(c2=O)CCc2ccccc2-1
The melting point of the first is lower: 158 to 160 °C for the first, 178 to 182 °C for the second.

First: Brc1cccc(C2Cc3cnc(Nc4ccc(CCNc5ccccc5)cc4)nc3-c3ccccc32)c1 (stereo unspecified)
Second: CS(=O)(=O)c1ccc(-c2nn(Cc3ccccc3)c(=O)cc2-c2ccccc2)cc1
The melting point of the first is lower: 92 to 94 °C for the first, 211 to 212 °C for the second.

First: COc1ccc(CSC2CC(=O)N2CC(=O)NCCCCCCc2ccc(F)cc2)cc1 (stereo unspecified)
Second: CCOC(=O)c1ccc(CCN2CCN(C(=O)Cc3ccc(Cl)cc3)CC2)cc1
The melting point of the first is lower: 53 to 55 °C for the first, 88 to 89 °C for the second.

First: CN1C(=O)CC[C@]2(C)c3ccc(-c4cc(C(C)(C)C)c(O)c(C(C)(C)C)c4)cc3CC[C@@H]12
Second: CCCNC(=O)Nc1cc(C(C)(C)C)c2c(c1)C(C)(C)CO2
The melting point of the first is higher: > 265 °C for the first, 193 to 194 °C for the second.

First: COc1ccc(S(=O)(=O)Nc2cccnc2Nc2cccc(OC)c2)cc1
Second: COc1cc(Nc2nccc(Nc3ccc(O)cc3)n2)cc(OC)c1OC
The melting point of the first is higher: 161 to 162 °C for the first, 112 to 115 °C for the second.

Going from `CC(C)(C)NC(=O)c1ccc(S(=O)(=O)Cl)cc1` to `CS(=O)(=O)NCCNc1ccc([N+](=O)[O-])cc1`, the melting point falls from 179 °C to 154 °C.

First: CCN(CC)C(=O)CCc1nc(-c2cccc(C(F)(F)F)c2)nc2ccccc12
Second: O=C(O)c1cccc(-c2cccn3c(=O)n(Cc4cccc(C(F)(F)F)c4)nc23)c1
The melting point of the first is lower: 115 °C for the first, 218 to 222 °C for the second.

First: O=C(c1cccc([N+](=O)[O-])c1)n1c2cc(O)c(O)cc2c2ccc(O)c(O)c21
Second: O=C1C(=O)c2ccc(-c3ccccc3)cc2C2=C1SCC1(CCN(C(=O)c3cccc(Cl)c3)CC1)O2
The melting point of the first is higher: 275 to 279 °C for the first, 240 to 241 °C for the second.

First: C[C@H](Cc1ccc(O)c(O)c1)NC(=O)OC(C)(C)C
Second: CCCCOc1c(CNC(=O)OC(C)(C)C)n(CC(C)C)c(=O)c2ccc(-c3nc(C)c(C(=O)O)s3)cc12
The melting point of the first is higher: 116 to 118 °C for the first, 107 to 109 °C for the second.

First: CCC(C)COC(=O)Oc1ccc(-c2ccc(OC(=O)OCC(C)CC)cc2)cc1 (stereo unspecified)
Second: CCOc1cc(C(=O)c2ccccn2)ccc1OCCOc1c(CC(=O)O)cccc1OC
The melting point of the first is lower: 85.5 °C for the first, 184 to 186 °C for the second.

First: CN1Cc2c(C(=O)OC3CCCCC3)ncn2-c2cccc(Cl)c2C1=O
Second: O=C1CCN(C(=O)c2ccc(Cl)cc2Cl)c2c(Cl)cccc21
The melting point of the first is higher: 208 to 209 °C for the first, 157 to 159 °C for the second.

First: Cc1ccc(S(=O)(=O)N2CCCC2c2ccccc2F)cc1 (racemic)
Second: Cc1ccc(S(=O)(=O)N2CCC(c3ccccc3)CC2)cc1
The melting point of the first is lower: 143 °C for the first, 153 to 154 °C for the second.

Compared with `CCCOc1cc(-c2c(C(=O)OCC)c(Cn3cnnc3)nc3cc(OC)c(OC)cc23)ccc1OC`, `CCOC(=O)c1c(C)oc2cc(N(C(C)=O)S(C)(=O)=O)c(Oc3ccccc3)cc2c1=O` is higher in melting point: 154 to 155 °C for the first, 166 to 168 °C for the second.

Compared with `Cc1nccn1C[Si](C)(C)Cc1ccc(F)cc1`, `CSc1nn2c(-n3ccnc3)cc(C)nc2c1S(=O)(=O)c1ccccc1` is higher in melting point: 60 to 62 °C for the first, > 230 °C for the second.

First: CCCC(=O)c1ccc(OC)c(C(=O)O)c1
Second: COc1cc(S(C)(=O)=O)c(C)cc1OCC(=O)NCC(O)COc1ccccc1 (stereo unspecified)
The melting point of the first is higher: 105 to 106 °C for the first, 103 to 105 °C for the second.

First: CC1(C)C=CC=CC1NCC1=NCCN1 (stereo unspecified)
Second: CSc1ncc(C2=NCC(C)(C)O2)cc1Cl
The melting point of the first is lower: 80 to 82 °C for the first, 113 to 115 °C for the second.

First: N#Cc1ccc2sc3c(c2c1)CC(CO)CC3 (stereo unspecified)
Second: COC(=O)CCOc1ccc(C#N)cc1
The melting point of the first is higher: 165 to 166 °C for the first, 51 °C for the second.

First: Cc1oc(-c2ccccc2)nc1COc1cc(COc2nn(C)cc2CC(=O)O)ccn1
Second: Cc1nc(N2CCN(Cc3cccc(F)c3)C2=O)sc1C(=O)NCc1ccccc1
The melting point of the first is lower: 126 to 127 °C for the first, 155 to 156 °C for the second.

Compared with `COC(=O)C1CCC(n2ccn(-c3ccc4c(c3)CCC(C#N)C4)c2=O)CC1` (stereo unspecified), `CC(=O)NC[C@H]1CN(c2ccc(N3CCC(C#N)(CC#N)CC3)c(F)c2)C(=O)O1` is higher in melting point: 116 to 118 °C for the first, 222 to 224 °C for the second.

First: CON=C(C(=O)O)c1nc(NC=O)sc1Br
Second: CC(C)(C)COc1ccc(NC(=O)c2cc3ccccc3s2)cc1C#N
The melting point of the first is lower: 165 to 167 °C for the first, 227 °C for the second.

Compared with `C(=Cc1cc(OCc2ccccc2)cc(OCc2ccccc2)c1)c1ccc(OCc2ccccc2)cc1`, `CCCC(=O)c1cnc2c(OCCCN(C)Cc3ccccc3)cccc2c1Nc1ccccc1C` is lower in melting point: 156 to 158 °C for the first, 100 to 102 °C for the second.

First: CCN(CC)C1=CC(=O)C(=O)C=C1N(CC)CC
Second: CCN(CC)C(=O)c1cccs1
The melting point of the first is higher: 100 to 103 °C for the first, 50 to 52 °C for the second.

Compared with `COc1ccc2c(c1)CCCC2(CO)NC(=O)c1c(F)cccc1F` (stereo unspecified), `C=CCOc1ccc(C=CC(=O)c2c(O)cc(OC)cc2OC)cc1` is lower in melting point: 174 to 175 °C for the first, 112 °C for the second.

First: CN1CCN(C(=O)c2ccc(-c3cc(-c4c[nH]nc4-c4ccccn4)ccn3)cc2)CC1
Second: Oc1ccc(-c2c3ccccc3cc3sc4ccccc4c23)cc1
The melting point of the first is higher: 142 °C for the first, 112 to 116 °C for the second.

Compared with `O=C(O)Cc1ccc2c(c1)C(=O)c1cccc(Cl)c1CO2`, `O=C(O)c1ccc2c(c1)Cc1cccnc1O2` is higher in melting point: 173 to 176 °C for the first, 285 to 286 °C for the second.

First: CCc1c(-c2ccc(N3CCN(C)CC3)nn2)ssc1=S
Second: CCCc1nc2c(N)nc3ccccc3c2n1CCOCCCS(C)(=O)=O
The melting point of the first is higher: 182 °C for the first, 149 to 151 °C for the second.

First: CCCCCS(=O)c1cccc(-c2nc(=O)c3ccccc3s2)n1 (stereo unspecified)
Second: SC1CCn2c(CCc3ccccc3)nc3cccc1c32 (stereo unspecified)
The melting point of the first is higher: 146 to 147 °C for the first, 75.7 to 78.8 °C for the second.

Compared with `CN(C)S(=O)(=O)c1ccc(C(F)(F)F)cc1S(N)(=O)=O`, `CS(=O)(=O)Nn1c(=O)[nH]c2cc([N+](=O)[O-])c(-n3ccnc3)cc2c1=O` is higher in melting point: 189 to 191 °C for the first, > 270 °C for the second.

First: Cc1cccc(NC(=O)OCc2cccc(O)c2)c1CNc1cccn2c(C)c(C)nc12
Second: Cc1ccc(C(=O)N(C)C)cc1-c1nc(NCCNC(C)C)nc2c1CNC(=O)N2c1c(F)cccc1F
The melting point of the first is higher: 190 to 193 °C for the first, 130 to 133 °C for the second.

Compared with `CCCCCCCCCCCNC(=O)NCCCC`, `C#Cc1cc(Nc2ncnc3cnc(NC(=O)CP(=O)(OCC)OCC)cc23)ccc1Cl` is higher in melting point: 70 °C for the first, 124 to 127 °C for the second.

Compared with `CON=C1SC(C)(c2ccccc2)C(=O)N1Nc1ccccc1` (stereo unspecified), `Cc1[nH]c(=O)[nH]c1C(=O)c1ccncc1` is higher in melting point: 133 to 134 °C for the first, 295 to 296 °C for the second.

`Oc1nsc2c1CCCC2` gave a melting point of 157 to 158 °C.
